Experimental findings from patent US12090146B2, “Substituted-pyridinyl compounds and uses thereof” (Bionomics Limited, priority 2018, dated 2024) are described below.

This experiment has as its target T1, hKv3.1 (Homo sapiens, UniProt P48547).
T1 construct: expressed in transfected cells
T1 sequence (P48547 1-511): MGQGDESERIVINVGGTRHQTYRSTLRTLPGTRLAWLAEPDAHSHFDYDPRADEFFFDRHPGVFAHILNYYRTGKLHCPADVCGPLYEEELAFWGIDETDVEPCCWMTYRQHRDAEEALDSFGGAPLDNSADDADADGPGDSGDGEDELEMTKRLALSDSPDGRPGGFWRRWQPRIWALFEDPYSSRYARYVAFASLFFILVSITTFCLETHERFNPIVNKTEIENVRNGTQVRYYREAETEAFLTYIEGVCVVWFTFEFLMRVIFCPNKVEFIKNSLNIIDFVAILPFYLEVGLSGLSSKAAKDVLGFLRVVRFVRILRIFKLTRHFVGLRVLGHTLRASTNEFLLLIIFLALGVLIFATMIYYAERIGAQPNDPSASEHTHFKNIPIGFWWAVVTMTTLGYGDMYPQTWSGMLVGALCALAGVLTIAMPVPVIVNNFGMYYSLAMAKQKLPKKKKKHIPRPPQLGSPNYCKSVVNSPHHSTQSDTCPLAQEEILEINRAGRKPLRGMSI
The experiment is described as follows: Automated patch clamp (Patchliner) whole-cell electrophysiology, Kv3.1. The format is cell-based. Conditions: 10 μM compound, CHO-K1 cells stably expressing hKv3.1; for Kv3.1 Activity at 10 μM Potentiation (%): % potentiation of peak current at −10 mV voltage step vs vehicle; for Kv3.1 Activity at 10 μM Voltage Shift (mV): voltage shift of the IV curve at V1/2. As to the method: hKv3.1, hKv3.2, hKv3.3, and hKv3.4 were stably expressed in CHO-K1 (Chinese hamster ovary) cells and kept under constant antibiotic selection. For in vitro assays, cells were maintained in appropriate growth medium at 37° C. and 5% CO2 in a humidified incubator.
hKv3.X expressing cells were plated in T-25 flasks for 3-4 days at 37° C. (no selection antibiotic) prior to use and grown to 80% confluence. Cells were washed twice with PBS (calcium and magnesium free) and detached with a 5-minute treatment at 37° C. with 2-3 mls of Accutase®. Cells were collected, and flask was washed in CHO-SFM II media (Life Technologies Gibco), centrifuged for 2 minutes at ˜110×g and resuspended to obtain a single cell suspension of ˜2-3×10^6 cells/ml.
The intracellular solution contained the following (in mM): KCl 50, NaCl 10, KF 60, EGTA 20, HEPES 10, adjusted to pH 7.2 with KOH and an osmolarity of 285 mOsmol. Seal enhancer was purchased from Nanion (80 mM NaCl, 3 mM KCl, 10 mM MgCl2, 35 mM CaCl2), 10 mM HEPES, pH7.4, 298 mOsmol. The external solution contained (in mM): NaCl 140, KCl 4, CaCl2) 2, MgCl2 1, HEPES 10, Glucose 5, adjusted to pH7.4 and an osmolarity of 298 mOsmol.
All compounds were initially tested at 10 uM at a final DMSO concentration of 0.33%. Compounds were dissolved in dimethylsulfoxide (DMSO) at a stock concentration of 30 mM. The compound was further diluted 1:10 to give a stock concentration of 3 mM in DMSO. The final assay solution was diluted 1:300 in External solution to give a final concentration of 10 uM. For the DMSO Control Buffer 30 uL of DMSO was added to 10 mL buffer.
All electrophysiological recordings were performed at ambient temperature (21-23° C.) using automated patch clamp (Patchliner, Nanion Technologies GmbH) in the whole-cell configuration.
Cell membrane potentials were held at −80 mV, and currents were evoked by voltage steps (1000 ms duration) from −60 to +60 mV in 10 mV increments. This was performed first with vehicle (0.33% DMSO) and then with 10 uM compound, after a 3-minute incubation period. Data was taken from 4 cells per assay.
The recordings were analysed and selected using peak current amplitude (>100 pA at the −10 mV voltage step) in the absence of compound to eliminate unsuitable cells from analysis. Peak current amplitude was measured and recorded for each voltage step and data was normalised to the maximum current at +60 mV. The normalised Kv3.x currents following addition of the compound were then compared with the currents recorded prior to compound addition (vehicle control). Positive modulation was determined as % potentiation at the voltage step of −10 mV=[current (cmpd)/current (veh)]*100−100. % potentiation ≥50% was considered acceptable. In addition, voltage shift of the IV curve at V1/2 was measured. V1/2 of ≥−5 mV was also considered acceptable. IV curves were plotted in GraphPad Prism (software version 6.0) and fitted with a Boltzmann equation, where V1/2 is the voltage at half-maximal activation.

Structures are written as SMILES.

On to `CC[C@@]1(C)NC(=O)N(c2ccnc(Oc3ccc(C)c(F)c3)c2)C1=O` [Example 12, (5R)-5-ethyl-3-[2-(3-fluoro-4-methyl-phenoxy)-4-pyridyl]-5-methyl-imidazolidine-2,4-dione], for which the “Kv3.1 Activity at 10 μM Potentiation (%)” value came to 6% and the “Kv3.1 Activity at 10 μM Voltage Shift (mV)” value is given as −3.31 mV.
As to `CC[C@@]1(C)NC(=O)N(c2ccnc(Oc3ccc(Cl)c(OC)c3)c2)C1=O` [Example 15, (5R)-5-ethyl-3-[2-(3-methoxy-4-chloro-phenoxy)-4-pyridyl]-5-methyl-imidazolidine-2,4-dione], the “Kv3.1 Activity at 10 μM Potentiation (%)” value was determined as 3% and the “Kv3.1 Activity at 10 μM Voltage Shift (mV)” value is given as −0.9 mV.
On the same counts, the results for `CC[C@@]1(C)NC(=O)N(c2ccnc(Oc3ccc(C)c(C)c3)c2)C1=O` [Example 17, (5R)-3-[2-(3,4-dimethylphenoxy)-4-pyridyl]-5-ethyl-5-methyl-imidazolidine-2,4-dione] are 28% and −3.12 mV.
The like results for `CC[C@@]1(C)NC(=O)N(c2ccnc(Oc3ccc4c(c3)OCCC4)c2)C1=O` [Example 19, (5R)-3-(2-chroman-7-yloxy-4-pyridyl)-5-ethyl-5-methyl-imidazolidine-2,4-dione] were, in that order, 35% and −0.4 mV.
On to `CC[C@H]1NC(=O)N(c2ccnc(Oc3ccc(C)c(OC)c3)c2)C1=O` [Example 23, (5R)-5-ethyl-3-[2-(3-methoxy-4-methyl-phenoxy)-4-pyridyl]imidazolidine-2,4-dione], for which the “Kv3.1 Activity at 10 μM Potentiation (%)” value is recorded as 30% and the “Kv3.1 Activity at 10 μM Voltage Shift (mV)” value amounted to 0.77 mV.
On the same counts, the results for `Cc1ccc(Oc2cc(N3C(=O)NC4(CCCCC4)C3=O)ccn2)cc1OC(F)(F)F` [Example 29, 3-[2-[4-methyl-3-(trifluoromethoxy)phenoxy]-4-pyridyl]-1,3-diazaspiro[4.5]decane-2,4-dione] are 12% and −0.63 mV.
On the same counts, the results for `COc1cc(Oc2cc(N3C(=O)NC4(CCOCC4)C3=O)ccn2)ccc1C` [Example 32, 3-[2-(3-methoxy-4-methyl-phenoxy)-4-pyridyl]-8-oxa-1,3-diazaspiro[4.5]decane-2,4-dione] are 19% and −2.06 mV.
On the same counts, the results for `CC[C@H]1NC(=O)N(c2cncc(Oc3ccc(C)c(OC)c3)c2)C1=O` [Example 38, (5R)-5-ethyl-3-[5-(3-methoxy-4-methyl-phenoxy)-3-pyridyl]imidazolidine-2,4-dione] are 48% and −2.8 mV.
In the case of `CC[C@@]1(C)NC(=O)N(c2cncc(Oc3ccc(C)c(OC)c3)c2)C1=O` [Example 40, (5R)-5-ethyl-3-[5-(3-methoxy-4-methyl-phenoxy)-3-pyridyl]-5-methyl-imidazolidine-2,4-dione], the “Kv3.1 Activity at 10 μM Potentiation (%)” value was found to be 78% and the “Kv3.1 Activity at 10 μM Voltage Shift (mV)” value was −4.77 mV.
In the case of `CC[C@H]1NC(=O)N(c2cc(Oc3ccc4ccccc4c3)ccn2)C1=O` [Example 42, (5R)-5-ethyl-3-[4-(2-naphthyloxy)-2-pyridyl]imidazolidine-2,4-dione], the “Kv3.1 Activity at 10 μM Potentiation (%)” value was found to be 25% and the “Kv3.1 Activity at 10 μM Voltage Shift (mV)” value is −3.07 mV.
For `CC(C)c1cc(Oc2ccnc(N3C(=O)NC(C)(C)C3=O)c2)ccc1C#N` [Example 47, 4-[[2-(4,4-dimethyl-2,5-dioxo-imidazolidin-1-yl)-4-pyridyl]oxy]-2-isopropyl-benzonitrile], the “Kv3.1 Activity at 10 μM Potentiation (%)” value was 29% and the “Kv3.1 Activity at 10 μM Voltage Shift (mV)” value is on record as −1.49 mV.
The like results for `CC[C@H]1NC(=O)N(c2cccc(Oc3ccc(OC)c(C)c3)n2)C1=O` [Example 51, (5R)-5-ethyl-3-[6-(4-methoxy-3-methyl-phenoxy)-2-pyridyl]imidazolidine-2,4-dione] were, in that order, 7% and −1.99 mV.
Regarding `CC[C@H]1NC(=O)N(c2cccc(Oc3cc(OC)ccc3C)n2)C1=O` [Example 52, (5R)-5-ethyl-3-[6-(5-methoxy-2-methyl-phenoxy)-2-pyridyl]imidazolidine-2,4-dione], the “Kv3.1 Activity at 10 μM Potentiation (%)” value is reported as 14% and the “Kv3.1 Activity at 10 μM Voltage Shift (mV)” value is −3.5 mV.
As for `CC[C@H]1NC(=O)N(c2cccc(Oc3cc(C)cc(OC)c3)n2)C1=O` [Example 54, (5R)-5-ethyl-3-[6-(5-methoxy-3-methyl-phenoxy)-2-pyridyl]imidazolidine-2,4-dione], the “Kv3.1 Activity at 10 μM Potentiation (%)” value is 11% and the “Kv3.1 Activity at 10 μM Voltage Shift (mV)” value is listed as −1.69 mV.
The like results for `CC[C@H]1NC(=O)N(c2cccc(Oc3cccc(OC)c3)n2)C1=O` [Example 55, (5R)-5-ethyl-3-[6-(3-methoxy-phenoxy)-2-pyridyl]imidazolidine-2,4-dione] were, in that order, 11% and −1.41 mV.
On the same counts, the results for `CC[C@H]1NC(=O)N(c2cccc(Oc3cccc(C)c3OC)n2)C1=O` [Example 56, (5R)-5-ethyl-3-[6-(2-methoxy-3-methyl-phenoxy)-2-pyridyl]imidazolidine-2,4-dione] are 19% and −2.7 mV.
On the same counts, the results for `CC[C@H]1NC(=O)N(c2cccc(Oc3ccc(C#N)cc3C(C)(C)C)n2)C1=O` [Example 57, 3-tert-butyl-4-[[6-[(4R)-4-ethyl-2,5-dioxo-imidazolidin-1-yl]-2-pyridyl]oxy]benzonitrile] are −23% and 2.18 mV.
Take `CC[C@@]1(C)NC(=O)N(c2cccc(Oc3ccc(F)c(OC)c3)n2)C1=O` [Example 59, (5R)-5-ethyl-3-[6-(4-fluoro-3-methoxy-phenoxy)-2-pyridyl]-5-methyl-imidazolidine-2,4-dione]: the “Kv3.1 Activity at 10 μM Potentiation (%)” value came out at 10% and the “Kv3.1 Activity at 10 μM Voltage Shift (mV)” value is −1.95 mV.
The like results for `CC[C@@]1(C)NC(=O)N(c2cccc(Oc3ccc(F)c(C)c3)n2)C1=O` [Example 60, (5R)-5-ethyl-3-[6-(4-fluoro-3-methyl-phenoxy)-2-pyridyl]-5-methyl-imidazolidine-2,4-dione] were, in that order, 51% and −3.45 mV.
The like results for `CC[C@@]1(C)NC(=O)N(c2cccc(Oc3ccc4c(c3)CCC4)n2)C1=O` [Example 61, (5R)-5-ethyl-3-(6-indan-5-yloxy-2-pyridyl)-5-methyl-imidazolidine-2,4-dione] were, in that order, 46% and −3.55 mV.
For the compound `CC[C@@]1(C)NC(=O)N(c2cccc(Oc3ccc(Cl)c(OC)c3)n2)C1=O` [Example 62, (5R)-3-[6-(4-chloro-3-methoxy-phenoxy)-2-pyridyl]-5-ethyl-5-methyl-imidazolidine-2,4-dione], the “Kv3.1 Activity at 10 μM Potentiation (%)” value worked out at 57% and the “Kv3.1 Activity at 10 μM Voltage Shift (mV)” value is −4.05 mV.
